Measured values: EP0908457B1, “3-(1,2-benzisothiazol- and isoxazol-5-Y1)-2,4(1H,3H)-pyrimidinedione or thione and 3-(1,2-benzisothiazol- and isoxazol-5-y1)-4(3H)-pyrimidinone or thione herbicidal agents” (BASF AKTIENGESELLSCHAFT, priority 1997, dated 1999)

Assays:
[1] = system: Cyperus serotinus, Rottb.; assay: Preemergence weed control under flooded paddy conditions, CYPSE (Flatsedge); type: in vivo; details: preemergence weeds, rated three to four weeks after treatment
Sagittaria pygmaea, L. = assay: Preemergence weed control under flooded paddy conditions, SAGPY (Arrowhead (Pygmaea)); type: in vivo; details: preemergence weeds, flooded paddy, rated three to four weeks after treatment
Cyperus iria = assay: Preemergence weed control under flooded paddy conditions, CYPIR (Rice Flatsedge); type: in vivo; details: preemergence weeds, flooded paddy, rated three to four weeks after treatment
[2] = system: Echinochloa oryzoides (Ard.) Fritsch.; assay: Preemergence weed control under flooded paddy conditions, ECHORC (Watergrass (Calif.)); type: in vivo; details: preemergence weeds, flooded paddy, rated three to four weeks after treatment
[3] = system: Oryza sativa, (L.) Tebonnet; assay: Rice tolerance to post-transplant applications under flooded paddy conditions (Example 187), ORYSAT (Rice, Tebonnet); details: rated three to four weeks after treatment
[4] = system: Monochoria vaginalis, Presl.; assay: Preemergence weed control under flooded paddy conditions, MOOVA (Monochoria); type: in vivo; details: preemergence weeds, flooded paddy, rated three to four weeks after treatment
Further: meaning of each grade not given here.

Row | SMILES | herbicidal effect rating, CYPSE ([1]; Rate 0.0320 kg/ha) | herbicidal effect rating, CYPSE ([1]; Rate 0.0620 kg/ha) | herbicidal effect rating, CYPSE ([1]; Rate 0.1250 kg/ha) | herbicidal effect rating, CYPSE ([1]; Rate 0.2500 kg/ha) | herbicidal effect rating, SAGPY (Sagittaria pygmaea, L.; Rate 0.0320 kg/ha) | herbicidal effect rating, SAGPY (Sagittaria pygmaea, L.; Rate 0.0620 kg/ha) | herbicidal effect rating, SAGPY (Sagittaria pygmaea, L.; Rate 0.1250 kg/ha) | herbicidal effect rating, SAGPY (Sagittaria pygmaea, L.; Rate 0.2500 kg/ha) | herbicidal effect rating, CYPIR (Cyperus iria; Rate 0.0320 kg/ha) | herbicidal effect rating, CYPIR (Cyperus iria; Rate 0.0620 kg/ha) | herbicidal effect rating, CYPIR (Cyperus iria; Rate 0.1250 kg/ha) | herbicidal effect rating, CYPIR (Cyperus iria; Rate 0.2500 kg/ha) | herbicidal effect rating, ECHORC ([2]; Rate 0.0320 kg/ha) | herbicidal effect rating, ECHORC ([2]; Rate 0.0620 kg/ha) | herbicidal effect rating, ECHORC ([2]; Rate 0.1250 kg/ha) | herbicidal effect rating, ECHORC ([2]; Rate 0.2500 kg/ha) | herbicidal effect rating ORYSAT ([3]; Rate 0.0320 kg/ha) | herbicidal effect rating ORYSAT ([3]; Rate 0.0620 kg/ha) | herbicidal effect rating ORYSAT ([3]; Rate 0.1250 kg/ha) | herbicidal effect rating ORYSAT ([3]; Rate 0.2500 kg/ha) | also measured
1 | Cn1c(C(F)(F)F)cc(=O)n(-c2ccc3snc(C(=O)Oc4ccccc4)c3c2)c1=O [Example 319, 1,2-Benzisothiazole-3-carboxylic acid, 5-[3,6-dihydro-3-methyl-2,6-dioxo-4-(trifluoromethyl)-1(2H)-pyrimidinyl]-, phenyl ester] | 4.0 | 6.0 | 6.0 | 6.0 | 6.0 | 6.0 | 9.0 | 9.0 | 3.0 | 9.0 | 9.0 | 9.0 | 3.0 | 7.0 | 9.0 | 9.0 | 5.0 | 6.0 | 6.0 | 7.0 | herbicidal effect rating, MOOVA ([4]; Rate 0.0320 kg/ha): 9.0; herbicidal effect rating, MOOVA ([4]; Rate 0.0620 kg/ha): 9.0; herbicidal effect rating, MOOVA ([4]; Rate 0.1250 kg/ha): 9.0; herbicidal effect rating, MOOVA ([4]; Rate 0.2500 kg/ha): 9.0
2 | Cn1c(C(F)(F)F)cc(=O)n(-c2ccc3snc(C(N)=O)c3c2)c1=O [Example 322, 1,2-Benzisothiazole-3-carboxamide, 5-[3,6-dihydro-3-methyl-2,6-dioxo-4-(trifluoromethyl)-1(2H)-pyrimidinyl]-] | 5.0 | 5.0 | 6.0 | 9.0 | 3.0 | 3.0 | 3.0 | 9.0 | 4.0 | 6.0 | 7.0 | 9.0 | 9.0 | 9.0 | 9.0 | 9.0 | 5.0 | 5.0 | 5.0 | 7.0 | herbicidal effect rating, MOOVA ([4]; Rate 0.0320 kg/ha): 5.0; herbicidal effect rating, MOOVA ([4]; Rate 0.0620 kg/ha): 9.0; herbicidal effect rating, MOOVA ([4]; Rate 0.1250 kg/ha): 9.0; herbicidal effect rating, MOOVA ([4]; Rate 0.2500 kg/ha): 9.0
3 | Cn1c(C(F)(F)F)cc(=O)n(-c2ccc3snc(C(=O)NS(C)(=O)=O)c3c2)c1=O [Example 323, 1,2-Benzisothiazole-3-carboxamide, 5-[3,6-dihydro-3-methyl-2,6-dioxo-4-(trifluoromethyl)-1(2H)-pyrimidinyl]-N-(methylsulfonyl)-] | 5.0 | 6.0 | 6.5 | 7.5 | 0.0 | 3.5 | 3.5 | 9.0 | 3.5 | 4.5 | 8.0 | 8.0 | 4.5 | 6.5 | 8.0 | 8.0 | 3.5 | 5.0 | 6.0 | 7.5 | herbicidal effect rating, MOOVA ([4]; Rate 0.0320 kg/ha): 8.0; herbicidal effect rating, MOOVA ([4]; Rate 0.0620 kg/ha): 9.0; herbicidal effect rating, MOOVA ([4]; Rate 0.1250 kg/ha): 9.0; herbicidal effect rating, MOOVA ([4]; Rate 0.2500 kg/ha): 9.0
4 | Cn1c(C(F)(F)F)cc(=O)n(-c2ccc3snc(C(=O)NS(=O)(=O)CCl)c3c2)c1=O [Example 324, 1,2-Benzisothiazole-3-carboxamide, N-[(chloromethyl)sulfonyl]-5-[3,6-dihydro-3-methyl-2,6-dioxo-4-(trifluoromethyl)-1(2H)-pyrimidinyl]-] | 0.0 | 0.0 | 3.0 | 7.0 | 0.0 | 3.0 | 9.0 | 9.0 | 9.0 | 9.0 | 9.0 | 9.0 | 0.0 | 4.0 | 5.0 | 6.0 | 3.0 | 4.0 | 7.0 | 9.0 | herbicidal effect rating, MOOVA ([4]; Rate 0.0320 kg/ha): 9.0; herbicidal effect rating, MOOVA ([4]; Rate 0.0620 kg/ha): 9.0; herbicidal effect rating, MOOVA ([4]; Rate 0.1250 kg/ha): 9.0; herbicidal effect rating, MOOVA ([4]; Rate 0.2500 kg/ha): 9.0
5 | COC(=O)C(C)Oc1cccc(-c2nsc3ccc(-n4c(=O)cc(C(F)(F)F)n(C)c4=O)cc23)c1 (stereo not drawn) [Example 325, Propionic acid, 2-{m-{5-[3,6-dihydro-3-methyl-2,6-dioxo-4-(trifluoromethyl)-1-(2H)-pyrimidinyl]-1,2-benzisothiazol-3-yl}phenoxy}-, methyl ester] | 4.7 | 9.0 | 7.3 | 9.0 | 4.0 | 4.3 | 6.3 | 9.0 | 8.0 | 8.7 | 9.0 | 9.0 | 7.7 | 9.0 | 9.0 | 9.0 | 2.7 | 3.0 | 3.7 | 4.0 | herbicidal effect rating, MOOVA ([4]; Rate 0.0320 kg/ha): 8.0; herbicidal effect rating, MOOVA ([4]; Rate 0.0620 kg/ha): 9.0; herbicidal effect rating, MOOVA ([4]; Rate 0.1250 kg/ha): 9.0; herbicidal effect rating, MOOVA ([4]; Rate 0.2500 kg/ha): 9.0
6 | C#CCOC(=O)COc1cccc(-c2nsc3ccc(-n4c(=O)cc(C(F)(F)F)n(C)c4=O)cc23)c1 [Example 326, Acetic acid, {m-{5-[3,6-dihydro-3-methyl-2,6-dioxo-4-(trifluoromethyl)-1(2H)-pyrimidinyl]-1,2-benzisothiazol-3-yl}phenoxy}-, 2-propynyl ester] | 4.0 | 4.5 | 4.5 | 7.5 | 0.0 | 1.0 | 5.5 | 9.0 | 6.0 | 7.0 | 7.0 | 9.0 | 5.5 | 8.5 | 9.0 | 9.0 | 5.5 | 5.5 | 5.5 | 5.5 | herbicidal effect rating, MOOVA ([4]; Rate 0.0320 kg/ha): 9.0; herbicidal effect rating, MOOVA ([4]; Rate 0.0620 kg/ha): 9.0; herbicidal effect rating, MOOVA ([4]; Rate 0.1250 kg/ha): 9.0; herbicidal effect rating, MOOVA ([4]; Rate 0.2500 kg/ha): 9.0
